Where a name gives a salt, the structure may show the parent alone.
Tests used:
[1] = target: human JAK2 (a.a. 828-1132) (Homo sapiens (Human), UniProt O60674); assay: In vitro JAK kinase assay (HTRF, phosphorylation of biotinylated peptide); type: biochemical; conditions: for IC50: at Km ATP (30 μM ATP for Jak2)
Description: (§1) The compounds of the invention were tested for inhibitory activity of JAK targets according to the following in vitro assay described in Park et al., Analytical Biochemistry 1999, 269, 94-104. The catalytic domains of human JAK1 (a.a. 837-1142), JAK2 (a.a. 828-1132) and JAK3 (a.a. 781-1124) with an N-terminal His tag were expressed using baculovirus in insect cells and purified. The catalytic activity of JAK1, JAK2 or JAK3 was assayed by measuring the phosphorylation of a biotinylated peptide. The phosphorylated peptide was detected by homogenous time resolved fluorescence (HTRF). […] The ATP concentration in the reactions was 90 μM for Jak1, 30 μM for Jak2 and 3 μM for Jak3. Reactions were carried out at room temperature for 1 hr and then stopped with 20 μL 45 mM EDTA, 300 nM SA-APC, 6 nM Eu-Py20 in assay buffer (Perkin Elmer, Boston, Mass.). Binding to the Europium labeled antibody took place for 40 minutes and HTRF signal was measured on a Fusion plate reader (Perkin Elmer, Boston, Mass.).

[2] = target: human JAK1 (a.a. 837-1142) (Homo sapiens, UniProt P23458); assay: as above; type: biochemical; conditions: at Km ATP (90 μM ATP for Jak1)
Description: as §1

human JAK2 (a.a. 828-1132), sequence (O60674 828-1132): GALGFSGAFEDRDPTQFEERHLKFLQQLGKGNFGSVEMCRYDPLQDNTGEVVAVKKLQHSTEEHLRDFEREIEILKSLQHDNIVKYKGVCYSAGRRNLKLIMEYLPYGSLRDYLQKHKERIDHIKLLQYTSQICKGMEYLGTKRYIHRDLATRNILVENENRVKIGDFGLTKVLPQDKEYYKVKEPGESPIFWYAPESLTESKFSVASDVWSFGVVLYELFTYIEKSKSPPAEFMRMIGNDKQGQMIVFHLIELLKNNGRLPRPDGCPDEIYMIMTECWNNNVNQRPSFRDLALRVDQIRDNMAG

For CCCCCC(CC#N)n1cc(-c2ncnc3[nH]ccc23)cn1 (single isomer, unassigned) [Example 1, first peak (free base), 3-[4-(7H-pyrrolo[2,3-d]pyrimidin-4-yl)-1H-pyrazol-1-yl]octanenitrile], the “JAK2 activity compared with the other form/enantiomer (in words)” value [1] was “not as potent as the other enantiomer”.
With CCCCCC(CC#N)n1cc(-c2ncnc3[nH]ccc23)cn1.O=P(O)(O)O (single isomer, unassigned) [Example 1, second peak (phosphate salt), 3-[4-(7H-pyrrolo[2,3-d]pyrimidin-4-yl)-1H-pyrazol-1-yl]octanenitrile phosphoric acid salt] the “JAK2 activity compared with the other form/enantiomer (in words)” value [1] was “similarly active”.
CCCCC(CC#N)n1cc(-c2ncnc3[nH]ccc23)cn1 (single isomer, unassigned) [Example 2, first peak (free base), 3-[4-(7H-pyrrolo[2,3-d]pyrimidin-4-yl)-1H-pyrazol-1-yl]heptanenitrile] was tested, and the IC50 [2] was 1.8 nM and the IC50 [1] was 1.4 nM.
With CCCCC(CC#N)n1cc(-c2ncnc3[nH]ccc23)cn1 (single isomer, unassigned) [Example 2, second peak (free base), 3-[4-(7H-pyrrolo[2,3-d]pyrimidin-4-yl)-1H-pyrazol-1-yl]heptanenitrile] the IC50 [2] was 0.57 nM and the IC50 [1] was 0.3 nM.
CCCCC(CC#N)n1cc(-c2ncnc3[nH]ccc23)cn1 (single isomer, unassigned) [Example 2, second peak (phosphate salt), 3-[4-(7H-pyrrolo[2,3-d]pyrimidin-4-yl)-1H-pyrazol-1-yl]heptanenitrile phosphoric acid salt] showed an IC50 [2] of 2 nM and an IC50 [1] of 0.65 nM.
